Results on 4 compounds are retold here after patent publication US20200164084A1, “ANTIBODY CONJUGATES COMPRISING TOLL-LIKE RECEPTOR AGONIST AND COMBINATION THERAPIES” (NOVARTIS AG, priority 2017, published 2020).

Molecules are shown by their SMILES.

Data set [1] in a line: In vitro stability of conjugates in mouse serum (deconjugation and succinimide ring hydrolysis by LC-MS). To be noted: anti-HER2 mAb2 conjugates, 37° C. It is filed as in vitro ADME. How it is done: The stability of the bond formed between maleimide containing payloads and Cys residues of the antibody is enhanced by the hydrolysis of the succinimide ring formed in this reaction. The effects of succinimide ring hydrolysis on the stability of antibody conjugates prepared with agonist compounds of the invention were studied after in vitro incubation in mouse serum. Mass changes resulting from payload deconjugation and the hydrolysis of the succinimide ring of maleimide payloads conjugated to antibodies were monitored by LC-MS. The hydrolysis of the succinimide ring has been reported to be stimulated by certain conditions such as high pH, high temperature, or high salts (J. Am. Chem. Soc. 1955, 77: 3922; Biochemistry 1976, 15: 2836; Biochem. J. 1979, 179: 191-197; J Pharm Sci. 1984, 73:1767-1771; Bioorg. Med. Chem. Lett. 17: 6286-6289, 2007). To probe the in vitro stability of conjugates, anti-HER2 antibody mAb2 conjugates were incubated at 37° C. in 50-70% mouse serum. […] The light chain, heavy chain Fab, and heavy chain Fc fragments were then analyzed by ESI-MS. The relative populations of deconjugated antibody, conjugates with attached payload with hydrolyzed succinimide ring, and conjugates with attached payload with intact succinimide ring, were calculated from the relative MS intensities of the corresponding conjugate species. […]

In another data set the target is T1, human TLR7 (Homo sapiens, UniProt Q9NYK1).
T1 construct: expressed in transfected cells; host or cells: HEK293
T1 sequence (Q9NYK1 27-1049): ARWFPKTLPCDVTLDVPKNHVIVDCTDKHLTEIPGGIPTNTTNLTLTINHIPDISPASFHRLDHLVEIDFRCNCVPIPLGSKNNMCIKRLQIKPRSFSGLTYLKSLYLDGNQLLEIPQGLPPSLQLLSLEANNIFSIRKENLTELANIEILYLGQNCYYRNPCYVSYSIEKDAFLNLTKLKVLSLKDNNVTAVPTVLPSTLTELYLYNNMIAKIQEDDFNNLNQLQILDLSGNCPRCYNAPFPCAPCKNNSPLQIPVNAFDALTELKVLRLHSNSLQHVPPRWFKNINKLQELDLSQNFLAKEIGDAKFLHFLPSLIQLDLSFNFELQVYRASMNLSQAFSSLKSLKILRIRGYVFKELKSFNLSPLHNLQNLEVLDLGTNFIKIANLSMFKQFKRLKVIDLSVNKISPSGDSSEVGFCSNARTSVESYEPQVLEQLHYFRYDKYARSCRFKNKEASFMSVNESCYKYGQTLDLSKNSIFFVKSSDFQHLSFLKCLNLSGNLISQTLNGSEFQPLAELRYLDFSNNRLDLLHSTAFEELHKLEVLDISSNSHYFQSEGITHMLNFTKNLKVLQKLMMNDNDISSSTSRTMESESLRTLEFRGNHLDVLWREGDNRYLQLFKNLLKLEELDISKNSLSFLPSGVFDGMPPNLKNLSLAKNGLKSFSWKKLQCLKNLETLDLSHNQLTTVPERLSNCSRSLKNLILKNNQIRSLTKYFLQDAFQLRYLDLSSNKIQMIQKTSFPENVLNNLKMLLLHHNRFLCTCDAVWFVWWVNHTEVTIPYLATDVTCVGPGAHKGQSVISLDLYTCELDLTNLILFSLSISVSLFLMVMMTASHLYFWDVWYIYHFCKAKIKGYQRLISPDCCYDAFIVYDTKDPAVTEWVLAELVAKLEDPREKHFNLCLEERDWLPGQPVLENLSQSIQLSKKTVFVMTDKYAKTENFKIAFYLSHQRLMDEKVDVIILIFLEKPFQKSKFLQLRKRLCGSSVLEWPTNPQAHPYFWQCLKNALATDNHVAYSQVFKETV
Put plainly: TLR7 reporter gene assay (HEK293, NF-kB-driven luciferase). It is filed as cell-based. To be noted: HEK293 cells stably transfected with human TLR7 and NF-kB-driven luciferase reporter. How it is done:
Compounds of Formula (I) were assayed to measure their activity as toll-like receptor 7 agonists.
As a control assay, normal HEK293 transfected with pNifty-Luc were used. […] Bright-Glo™ Luciferase assay buffer and substrate were supplied by Promega # E263B and # E264B (assay substrate and buffer respectively). 384 well clear-bottom plates were supplied by Greiner bio-one (#789163-G) and were custom bar-coded plates.
Cells were plated at 25,000 cells/well in 384-well plates in a final volume of 50 μl of media. Cells were allowed to adhere to the plates after overnight (18 hours) culture at 37° C. and 5% CO2. Serially diluted experimental and positive control compounds were then dispensed to each well and incubated for 7 hours at 37° C. and 5% CO2. Cells stimulated with DMSO alone also serve as negative controls. After the incubation, 30 μl of the pre-mix assay buffer and substrate buffer were added to each well according to manufacturer's instructions. The luminescence signal was read on a CLIPR machine with an integration time of 20 seconds per plate.

As for `CCCCCNc1nc(N)nc2ccn(Cc3ccc(CN4CCN(CCN5C(=O)C=CC5=O)CC4)cc3OC)c12` [Compound C-5, 1-(2-(4-(4-((2-amino-4-(pentylamino)-5H-pyrrolo[3,2-d]pyrimidin-5-yl)methyl)-3-methoxybenzyl)piperazin-1-yl)ethyl)-1H-pyrrole-2,5-dione], the “conjugate stability (deconjugation through reverse maleimide reaction, succinimide ring hydrolysis)” value in data set [1] is given as “improved conjugate stability”.
For `CCCCCNc1nc(N)nc2ccn(Cc3ccc(CN4CCN(C(=O)CCOCCOCCNC(=O)CN5C(=O)C=CC5=O)CC4)cc3OC)c12` [Compound C-21, N-(2-(2-(3-(4-(4-((2-amino-4-(pentylamino)-5H-pyrrolo[3,2-d]pyrimidin-5-yl)methyl)-3-methoxybenzyl)piperazin-1-yl)-3-oxopropoxy)ethoxy)ethyl)-2-(2,5-dioxo-2,5-dihydro-1H-pyrrol-1-yl)acetamide], the “conjugate stability (deconjugation through reverse maleimide reaction, succinimide ring hydrolysis)” value in data set [1] was “improved conjugate stability”.
What is called EC50 is the concentration giving half of the maximal effect. In turn, `CCCC[C@@H](CO)Nc1nc(N)nc2ccn(Cc3cc(CN4CCN(C(=O)CCCC(=O)NCCCC[C@H](N)C(=O)O)CC4)ccc3OC)c12` [Compound C-48, (S)-2-amino-6-(5-(4-(3-((2-amino-4-(((S)-1-hydroxyhexan-2-yl)amino)-5H-pyrrolo[3,2-d]pyrimidin-5-yl)methyl)-4-methoxybenzyl)piperazin-1-yl)-5-oxopentanamido)hexanoic acid] gave an EC50 at human TLR7 of 1900 nM.
The compound `CCCCCNc1nc(N)nc2ccn(Cc3ccc(CN4CCN(CCO)CC4)cc3OC)c12` [Compound C-68, 2-(4-(4-((2-amino-4-(pentylamino)-5H-pyrrolo[3,2-d]pyrimidin-5-yl)methyl)-3-methoxybenzyl)piperazin-1-yl)ethan-1-ol] registered an EC50 on human TLR7 of less than 1 nM.
